Laboratory results reported in US20180141962A1, “AZACARBAZOLE BTK INHIBITORS” (MERCK SHARP & DOHME CORP., priority 2015, published 2018).

These molecules were tested against T1, BTK enzyme (recombinant full-length BTK, hBTK) (Homo sapiens, UniProt Q06187) (assay: Btk enzyme activity assay, LANCE TR-FRET). Settings: 50 pM hBTK, 2 μM biotin-A5-peptide, 25 μM ATP; 60 minute compound & enzyme incubation; 120 minutes reaction; read-out: BTK binding potency IC50.
T1 construct: recombinant protein from baculovirus-transfected Sf9 cells: full-length BTK, 6HIS-tag cleaved; 6HIS (cleaved yes); made in house; host or cells: baculovirus-transfected Sf9 cells
T1 sequence (Q06187 whole entry): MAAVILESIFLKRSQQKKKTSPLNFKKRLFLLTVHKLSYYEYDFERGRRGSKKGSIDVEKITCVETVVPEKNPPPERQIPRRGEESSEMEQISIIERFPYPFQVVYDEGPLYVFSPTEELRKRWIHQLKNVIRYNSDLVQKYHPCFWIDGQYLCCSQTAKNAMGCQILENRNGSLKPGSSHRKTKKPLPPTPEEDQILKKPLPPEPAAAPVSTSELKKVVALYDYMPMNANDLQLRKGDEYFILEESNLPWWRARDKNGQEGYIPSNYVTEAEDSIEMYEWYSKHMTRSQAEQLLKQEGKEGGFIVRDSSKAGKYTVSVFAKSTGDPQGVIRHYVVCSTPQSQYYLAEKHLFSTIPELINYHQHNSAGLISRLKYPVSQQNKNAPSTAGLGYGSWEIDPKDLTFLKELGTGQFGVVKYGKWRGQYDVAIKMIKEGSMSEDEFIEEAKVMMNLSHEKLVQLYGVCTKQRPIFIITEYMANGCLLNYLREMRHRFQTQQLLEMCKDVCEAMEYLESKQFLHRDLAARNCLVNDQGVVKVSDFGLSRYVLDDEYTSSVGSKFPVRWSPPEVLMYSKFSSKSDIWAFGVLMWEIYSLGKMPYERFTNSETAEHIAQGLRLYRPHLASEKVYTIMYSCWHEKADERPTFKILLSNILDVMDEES
Format: biochemical
Molecule `COC(=O)CCN1CCCC2(CCCN(c3ncc(C(N)=O)c4[nH]c5ccccc5c34)C2)C1=O` (centres unmarked) [Example 31, methyl 3-[8-(4-carbamoyl-5H-pyrido[4,3-b]indol-1-yl)-1-oxo-2,8-diazaspiro[5.5]undec-2-yl]propanoate] has an IC50 of 96.8 nM.
`NC(=O)c1cnc(N2CCC[C@@]3(C2)C(=O)NC[C@@H]3c2ccccc2)c2c1[nH]c1ccccc12` (single isomer, unassigned) [Example 88, 1-[(trans)-1-oxo-4-phenyl-2,7-diazaspiro[4.5]dec-7-yl]-5H-pyrido[4,3-b]indole-4-carboxamide] showed an IC50 of 77.8 nM.
`NC(=O)c1cnc(N2CCCC3(CCNC(=O)C3)C2)c2c1[nH]c1ccccc12` (centres unmarked) [Example 37, 1-(8-oxo-2,9-diazaspiro[5.5]undec-2-yl)-5H-pyrido[4,3-b]indole-4-carboxamide] showed an IC50 of 46.4 nM.
With `CN1CC[C@@]2(CCCN(c3ncc(C(N)=O)c4[nH]c5cc(-c6cccc(C(O)C(F)(F)F)c6)ccc5c34)C2)C1=O` (stereo partly drawn) [Example 79, 1-[(5R)-2-methyl-1-oxo-2,7-diazaspiro[4.5]dec-7-yl]-7-[3-(2,2,2-trifluoro-1-hydroxyethyl)phenyl]-5H-pyrido[4,3-b]indole-4-carboxamide] the IC50 was 63 nM.
Work on `CC(=O)N1CCC2(CCN(c3ncc(C(N)=O)c4[nH]c5ccccc5c34)CC2)C1` [Example 14, 1-(2-acetyl-2,8-diazaspiro[4.5]dec-8-yl)-5H-pyrido[4,3-b]indole-4-carboxamide] yielded an IC50 of 26 nM.
`CN1CC[C@@]2(CCCN(c3ncc(C(N)=O)c4[nH]c5cc(C6CCC(CC(C)(C)O)CC6)ccc5c34)C2)C1=O` (stereo partly drawn) [Example 82, 7-[4-(2-hydroxy-2-methylpropyl)cyclohexyl]-1-[(5R)-2-methyl-1-oxo-2,7-diazaspiro[4.5]dec-7-yl]-5H-pyrido[4,3-b]indole-4-carboxamide] showed an IC50 of 2.9 nM.
Molecule `NC(=O)c1cnc(N2CCC3(CCNC3)CC2)c2c1[nH]c1ccccc12` [Example 12, 1-(2,8-diazaspiro[4.5]dec-8-yl)-5H-pyrido[4,3-b]indole-4-carboxamide] has an IC50 of 35 nM.
`COc1cc(-c2ccc3c(c2)[nH]c2c(C(N)=O)cnc(N4CCC[C@@]5(CCNC5=O)C4)c23)ccn1` [Example 69, 7-(2-methoxypyridin-4-yl)-1-[(5R)-1-oxo-2,7-diazaspiro[4.5]dec-7-yl]-5H-pyrido[4,3-b]indole-4-carboxamide] showed an IC50 of 17.5 nM.
